The values below are quoted from earlier work in US20220401509A1, “Composition For Improving Mental State, Production Method For Composition For Improving Mental State, And Use Of Fruit Of Eggplant For Improving Mental State” (SHINSHU UNIVERSITY, priority 2019, published 2022).

Each structure is given as a SMILES string.

Data set [1] deals with spontaneously hypertensive rats (SHRs). To be noted: purified, single oral dose to SHR.
In a further data set the test system is adult individuals. To be noted: according to the "Foods with Function Claims" in Japan.

Regarding `CC(O)C(=O)OCC[N+](C)(C)C.[I-]` (centres unmarked) [lactoylcholine], the antihypertensive effect result in data set [1] was “had an antihypertensive effect”.

As to `NCCCC(=O)O` [GABA, γ-aminobutyric acid], the “effective dose for antihypertensive effect in adult individuals” value in the data set with adult individuals is recorded as 12.3 mg/day.

Regarding `CCCC(=O)OCC[N+](C)(C)C` [butyrylcholine], in data set [1], the antihypertensive effect entry is “had an antihypertensive effect”.

As to `CCC(=O)OCC[N+](C)(C)C` [propionylcholine], the antihypertensive effect result in data set [1] was “had an antihypertensive effect”.

Regarding `O=C(/C=C/c1ccc(O)c(O)c1)O[C@@H]1C[C@](O)(C(=O)O)C[C@@H](O)[C@H]1O` [CA, chlorogenic acid], the “effective dose for antihypertensive effect in adult individuals” value in the data set on adult individuals is given as 271 mg/day.
